In general, IC50 refers to the concentration that gives 50% inhibition. The EC50 is the midpoint of the concentration-response curve.

Where only a bound is given, the exact number is not on record here.

From patent publication US11555036B2, “FGFR4 inhibitor, preparation method therefor and pharmaceutical use thereof” (Abbisko Therapeutics Co., Ltd., priority 2016, dated 2023) come the findings set out here.

The target of one experiment is FGFR4 (Homo sapiens, UniProt P22455). Briefly: FGFR4 Caliper Assay (in vitro biochemical kinase analysis of FGFR4). To be noted: read-out: Enzymatic activity FGFR4 IC50. Here is the method: I. In Vitro Biochemical Kinase Analysis of FGFR4
Sequence of FGFR4 (P22455 22-802): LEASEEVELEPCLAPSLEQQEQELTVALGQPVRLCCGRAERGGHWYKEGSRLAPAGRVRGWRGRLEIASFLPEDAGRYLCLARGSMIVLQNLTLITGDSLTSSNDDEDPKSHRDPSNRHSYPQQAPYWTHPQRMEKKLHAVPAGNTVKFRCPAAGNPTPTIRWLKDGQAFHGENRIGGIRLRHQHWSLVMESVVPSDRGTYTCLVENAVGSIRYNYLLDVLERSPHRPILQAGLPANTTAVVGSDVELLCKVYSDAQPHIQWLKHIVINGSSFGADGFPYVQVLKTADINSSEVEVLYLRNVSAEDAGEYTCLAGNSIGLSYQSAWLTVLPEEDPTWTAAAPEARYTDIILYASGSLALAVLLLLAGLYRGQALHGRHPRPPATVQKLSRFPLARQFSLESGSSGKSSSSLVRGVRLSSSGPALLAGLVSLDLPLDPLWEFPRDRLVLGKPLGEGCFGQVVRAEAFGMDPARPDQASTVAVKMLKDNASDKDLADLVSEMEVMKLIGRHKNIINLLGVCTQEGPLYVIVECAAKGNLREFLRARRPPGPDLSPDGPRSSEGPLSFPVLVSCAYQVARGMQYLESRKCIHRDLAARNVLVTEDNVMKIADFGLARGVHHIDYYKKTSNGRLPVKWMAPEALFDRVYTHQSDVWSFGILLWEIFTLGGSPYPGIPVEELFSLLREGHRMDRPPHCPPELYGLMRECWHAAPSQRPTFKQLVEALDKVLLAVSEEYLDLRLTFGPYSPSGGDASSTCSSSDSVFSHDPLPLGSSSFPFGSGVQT
FGFR4 Caliper Assay was used in the present invention to determine the inhibitory activities of the compounds against FGFR4. The detailed experimental procedure was as follows.
2. A reaction system is a mixture solution of 50 mM HEPES, pH 7.5, 1 mM DTT, 0.02% Tween 20, 0.02% BSA, 0.6% DMSO, 10 mM beta glycerol phosphate and 10 μM sodium orthovanadate and 16 mM MgCl2.
3. The reaction system was incubated at 30° C. for 40 minutes.
4. The reaction was terminated by adding a stop solution (100 mM HEPES, pH 7.5, 5% DMSO, 0.1% Caliper coating reagent, 10 mM EDTA and 0.015% Brij35).
5. The culture plate with the terminated kinase reaction was transferred to the Caliper LC 3000 workstation to read the data, the phosphorylated and unphosphorylated peptides were separated by using the Caliper microfluid migration shift technique, and the analyte was transferred by allowing a constant buffer flow through the chip, the migration of the substrate peptide was monitored by the labeled fluorescent signal, and the kinase activity was calculated by using the amount of the phosphate-based peptide formed.
6. Finally, IC50 values were determined by non-linear regression analysis of percent inhibition at different compound concentrations.

In experiment [1] the test system is Huh7 hepatocellular carcinoma cells. Briefly: FGFR4 cell proliferation experiment, Cell Titer Glo (CTG). It counts as cell-based. Conditions: Homo sapiens, Huh-7, 72 h, HuH-7 cells, 3 days; for IC50: concentration leading to absolute half growth inhibition; for EC50: concentration leading to half maximal growth inhibition. On the procedure: II. FGFR4 Cell Proliferation Experiment
Cell Titer Glo (CTG) experiment was used in the present invention to evaluate the functional effects of the compounds on cell proliferation. […] Compound-mediated inhibition of cell proliferation/survival was assessed by quantification of cellular ATP levels using CTG reagent (Promega, #G7573). The specific experimental procedure was as follows:
2. 10 μL of medium containing a compound concentration of 10 fold of its final test concentration was added;
3. The dose effect was evaluated by a 5-fold serial dilution of the test compound, starting from 10 μM.
4. After cells incubation for 3 days at 37° C. under 5% CO2, the effect of the inhibitor on cell proliferation was quantified after adding 50 μL of CTG and testing with luminescence.

Regarding `C=CC(=O)N[C@H]1COC[C@H]1Nc1ncc2cc(-c3c(Cl)c(OC)cc(OC)c3Cl)nc(N(C)C)c2n1` [Example 436, N-((3R,4S)-4-((6-(2,6-dichloro-3,5-di-methoxyphenyl)-8-(dimethylamino)pyrido[3,4-d]pyrimidin-2-yl)amino)tetrahydrofuran-3-yl)acrylamide], the IC50 on FGFR4 was more than 10000 nM. Take `C=CC(=O)N[C@H]1COC[C@H]1Nc1ncc2cc(-c3c(F)c(OC)cc(OC)c3F)nc(NCC3CC3)c2n1` [Example 424, N-((3R,4S)-4-((8-((cyclopropylmeth-yl)amino)-6-(2,6-difluoro-3,5-dimeth-oxyphenyl)pyrido[3,4-d]pyrimidin-2-yl)amino)tetrahydrofuran-3-yl)acryl-amide]: the IC50 at FGFR4 amounted to 11 nM. In experiment [1], this compound returned an IC50 of 37.2 nM and a concentration for a half-maximal effect (EC50) of 18.5 nM.

On to `C=CC(=O)N[C@H]1COC[C@H]1Nc1ncc2cc(-c3c(F)c(OC)cc(OC)c3F)nc(N3CCC3)c2n1` [Example 774, N-((3R,4S)-4-((8-(azetidin-1-yl)-6-(2,6-difluoro-3,5-dimethoxyphenyl)py-rido[3,4-d]pyrimidin-2-yl)amino)tetra-hydrofuran-3-yl)acrylamide], for which, on FGFR4, the half-inhibitory concentration (IC50) is 3.2 nM. In experiment [1], this compound showed an IC50 of 8.8 nM and an EC50 of 6.9 nM.

For `C=CC(=O)N[C@H]1COC[C@H]1Nc1ncc2cc(-c3c(Cl)c(OC)cc(OC)c3Cl)nc(N3CCOCC3)c2n1` [Example 686, N-((3R,4S)-4-((6-(2,6-dichloro-3,5-dimethoxyphenyl)-8-morpholino-pyrido[3,4-d]pyrimidin-2-yl)amino)tetra-hydrofuran-3-yl)acrylamide], the half-inhibitory concentration (IC50) on FGFR4 came out at 8.2 nM. Moreover, in experiment [1], the IC50 was 8.8 nM and a half-maximal effect (EC50) was put at 5.4 nM.

Regarding `C=CC(=O)N[C@H]1CCOC[C@H]1Nc1ncc2cc(-c3c(F)c(OC)cc(OC)c3F)nc(N3CCC3)c2n1` [Example 792, N-((3S,4S)-3-((8-(azetidin-1-yl)-6-(2,6-difluoro-3,5-dimethoxyphenyl)py-rido[3,4-d]pyrimidin-2-yl)amino)tetra-hydro-2H-pyran-4-yl)acrylamide], the IC50 at FGFR4 came to 3.1 nM. In addition, in experiment [1], the IC50 was determined as 6.2 nM and it took 4.8 nM to reach a half-maximal effect (EC50). For `C=CC(=O)N[C@H]1COC[C@H]1Nc1ncc2cc(-c3cc(OC)cc(OC)c3Cl)ncc2n1` [Example 121, N-((3R,4S)-4-((6-(2-chloro-3,5-dime-thoxyphenyl)pyrido[3,4-d]pyrimidin-2-yl)amino)tetrahydrofuran-3-yl)acrylamide] the same measures were 183 nM, 401 nM and 172 nM. Turning to `C=CC(=O)N[C@H]1COC[C@H]1Nc1ncc2cc(-c3c(Cl)c(OC)cc(OC)c3Cl)nc(C)c2n1` [Example 606, N-((3R,4S)-4-((6-(2,6-dichloro-3,5-di-methoxyphenyl)-8-methylpyrido[3,4-d]pyrimidin-2-yl)amino)tetrahydro-furan-3-yl)acrylamide], the 50% inhibitory concentration (IC50) at FGFR4 was found to be 23.4 nM; in experiment [1] it was 41.1 nM. In experiment [1], this compound displayed a concentration giving a half-maximal response (EC50) of 25.7 nM. For the compound `C=CC(=O)Nc1cccc(C)c1Nc1ncc2cc(-c3c(Cl)c(OC)cc(OC)c3Cl)ccc2n1` [BLU-9931], in experiment [1], the midpoint of inhibition, the IC50, lay at 1360 nM and the EC50 is 549 nM. Turning to `C=CC(=O)N[C@H]1COC[C@H]1Nc1ncc2cc(-c3c(Cl)c(OC)cc(OC)c3Cl)nc(N3CC[C@](C)(O)C3)c2n1` [Example 778, N-((3R,4S)-4-((6-(2,6-dichloro-3,5-dimethoxyphenyl)-8-((S)-3-hydroxy-3-methylpyrrolidin-1-yl)pyrido[3,4-d]py-rimidin-2-yl)amino)tetrahydrofuran-3-yl)acrylamide], in experiment [1], the half-maximal inhibitory concentration (IC50) was determined as 11.2 nM and the EC50 was 9.5 nM. As for `C=CC(=O)N[C@H]1COC[C@H]1Nc1ncc2cc(-c3c(Cl)c(OC)cc(OC)c3Cl)nc(NC3CCOCC3)c2n1` [Example 444, N-((3R,4S)-4-((6-(2,6-dichloro-3,5-di-methoxyphenyl)-8-((tetrahydro-2H-pyran-4-yl)amino)pyrido[3,4-d]py-rimidin-2-yl)amino)tetrahydrofuran-3-yl)acrylamide], the concentration for half-maximal inhibition (IC50) at FGFR4 stood at 7 nM.

`C=CC(=O)N[C@H]1COC[C@H]1Nc1ncc2cc(-c3c(Cl)c(OC)cc(OC)c3Cl)nc(OCc3cc(OC)cc(OC)c3)c2n1` [Example 755, N-((3R,4S)-4-((6-(2,6-dichloro-3,5-dimethoxyphenyl)-8-((3,5-dimethoxy-benzyl)oxy)pyrido[3,4-d]pyrimidin-2-yl)amino)tetrahydrofuran-3-yl) acrylamide]: the concentration for half-maximal inhibition (IC50) at FGFR4 is 43 nM. For `C=CC(=O)N[C@H]1COC[C@H]1Nc1ncc2cc(-c3c(Cl)c(OC)cc(OC)c3Cl)nc(NCCN(C)C)c2n1` [Example 431, N-((3R,4S)-4-((6-(2,6-dichloro-3,5-di-methoxyphenyl)-8-((2-(dimethylami-no)ethyl)amino)pyrido[3,4-d]pyrimi-din-2-yl)amino)tetrahydrofuran-3-yl) acrylamide], at FGFR4, the 50% inhibitory concentration (IC50) amounted to 519 nM. Turning to `C=CC(=O)N[C@H]1COC[C@H]1Nc1ncc2cc(-c3c(Cl)c(OC)cc(OC)c3Cl)nc(NCCCCN(C)C)c2n1` [Example 465, N-((3R,4S)-4-((6-(2,6-dichloro-3,5-di-methoxyphenyl)-8-((4-(dimethylamino)butyl)amino)pyrido[3,4-d]pyrimi-din-2-yl)amino)tetrahydrofuran-3-yl) acrylamide], the IC50 at FGFR4 is 46.4 nM. Same read-out and setting: the value for `[2H]C([2H])([2H])Oc1cc(OC([2H])([2H])[2H])c(Cl)c(-c2cc3cnc(N[C@@H]4COC[C@@H]4NC(=O)C=C)nc3c(NCC3CC3)n2)c1Cl` [Example 425, N-((3R,4S)-4-((8-((cyclopropylmeth-yl)amino)-6-(2,6-dichloro-3,5-bis(meth-oxy-d3)phenyl)pyrido[3,4-d]pyrimi-din-2-yl)amino)tetrahydrofuran-3-yl)acrylamide] was 7.7 nM.

For the compound `C=CC(=O)N[C@H]1COC[C@H]1Nc1ncc2cc(-c3c(Cl)c(OC)cc(OC)c3Cl)nc(C3CC3)c2n1` [Example 609, N-((3R,4S)-4-((8-cyclopropyl-6-(2,6-dichloro-3,5-dimethoxyphenyl)pyri-do[3,4-d]pyrimidin-2-yl)amino)tetra-hydrofuran-3-yl)acrylamide], in experiment [1], it took 56.1 nM to reach half-maximal inhibition (IC50) and the concentration for a half-maximal effect (EC50) was 36.6 nM. For `C=CC(=O)N[C@H]1COC[C@H]1Nc1ncc2cc(-c3c(F)ccc(OC)c3F)nc(NC)c2n1` [Example 777, N-((3R,4S)-4-((6-(2,6-difluoro-3-meth-oxyphenyl)-8-(methylamino)pyri-do[3,4-d]pyrimidin-2-yl)amino)tetra-hydrofuran-3-yl)acrylamide] the same measures were 660 nM and 651 nM. Consider `C=CC(=O)N[C@H]1COC[C@H]1Nc1ncc2cc(-c3c(Cl)c(OC)cc(OC)c3Cl)nc(NCC3CCOC3)c2n1` (stereo partly drawn) [Example 439, N-((3R,4S)-4-((6-(2,6-dichloro-3,5-di-methoxyphenyl)-8-(((tetrahydrofuran-3-yl)methyl)amino)pyrido[3,4-d]py-rimidin-2-yl)amino)tetrahydrofuran-3-yl)acrylamide], for which the IC50 on FGFR4 amounted to 4.6 nM. `C=CC(=O)N[C@H]1COC[C@H]1Nc1ncc2cc(-c3c(Cl)c(OC)cc(OC)c3Cl)nc(N3CC[C@@](C)(O)C3)c2n1` [Example 779, N-((3R,4S)-4-((6-(2,6-dichloro-3,5-dimethoxyphenyl)-8-((R)-3-hydroxy-3-methylpyrrolidin-1-yl)pyrido[3,4-d]pyrimidin-2-yl)amino)tetrahydro-furan-3-yl)acrylamide]: in experiment [1], the IC50 is 8.6 nM and the EC50 turned out to be 7.5 nM.
